Data reported in patent US20230218563A1, “METHODS FOR TREATING OR PREVENTING CHRONIC KIDNEY DISEASE” (Arthrosi Therapeutics, Inc., priority 2020, published 2023).

What was measured:
serum uric acid (sUA) = test: Phase 1 single dose study, pharmacodynamics (serum uric acid) in healthy adult males; format: in vivo, human
Experimental: The dose groups included Cohort 1 (15 mg or placebo, fasted, oral suspension), Cohort 2 (50 mg or placebo, fasted, suspension), Cohort 3 (100 mg or placebo, fasted, oral suspension), Cohort 4 (150 mg or placebo, fasted, oral suspension), Cohort 6 (50 mg or placebo, fed, oral suspension), and Cohort 7 (50 mg or placebo, fasted, oral capsule). […] An additional 8 subjects received placebo.
Decrease in sUA appeared to reach a plateau at 100 mg or lower.

[1] = Solubility of test articles in HBSS assay buffer; conditions: all tested concentrations, highest 10 μM
Experimental: Before the experiment, the medium was removed and the cells were washed twice with 100 μL of HBSS without Cl^−. Uptake experiments were carried out at 37±1° C. in 50 μL of HBSS without Cl^−, pH 7.4 containing the probe substrate (20 μM uric acid) and the test article (TA) or solvent.

[2] = tested on: urine albumin-to-creatinine ratio (UACR); test: Phase 2a study, UACR in a subject with albuminuria; format: in vivo, human; conditions: one subject with albuminuria, baseline 96 mg/g; sequential 7-day periods: Compound 1 50 mg (Day 7), Compound 1 50 mg/allopurinol 300 mg (Day 14), allopurinol 300 mg (Day 21)
From the text: Urine samples were collected for assessment of uric acid excretion. Laboratory safety tests, vital signs, and electrocardiograms were collected throughout the study.

[3] = 100 mg single oral, fasted, 6 h
[4] = 100 mg single oral, fasted, 12 h
[5] = 100 mg single oral, fasted, 24 h
[6] = 100 mg single oral, fasted, 30 h
[7] = 100 mg single oral, fasted, 36 h
[8] = 100 mg single oral, fasted, 48 h
[9] = 100 mg single oral, fasted, 54 h
[10] = 100 mg single oral, fasted, 60 h
[11] = 100 mg single oral, fasted, 72 h
[12] = 100 mg single oral, fasted, 96 h
[13] = 100 mg single oral, fasted, 120 h
[14] = 150 mg single oral, fasted, 6 h
[15] = 150 mg single oral, fasted, 12 h
[16] = 150 mg single oral, fasted, 24 h
[17] = 150 mg single oral, fasted, 30 h
[18] = 150 mg single oral, fasted, 36 h
[19] = 150 mg single oral, fasted, 48 h
[20] = 150 mg single oral, fasted, 54 h
[21] = 150 mg single oral, fasted, 60 h
[22] = 150 mg single oral, fasted, 72 h
[23] = 150 mg single oral, fasted, 96 h
[24] = 150 mg single oral, fasted, 120 h
[25] = single oral dose, 50 mg or higher, fasted

## [2H]c1c([2H])c([2H])c2c(C(=O)c3cc(Br)c(O)c(Br)c3)c(C(C)O)oc2c1[2H] (racemic) [Compound 1, (3,5-dibromo-4-hydroxyphenyl)(2-(1-hydroxyethyl)benzofuran-3-yl-4,5,6,7-d4)methanone]
Serum uric acid (sUA); 50 mg single oral, fed, 6 h
  Percent change in serum uric acid, mean, time-matched (Day-1) baseline: −20.3%
  Serum uric acid, mean: 4.8 mg/dL
Serum uric acid (sUA); 50 mg single oral, fed, 12 h
  Percent change in serum uric acid, mean, time-matched (Day-1) baseline: −37.7%
  Serum uric acid, mean: 3.9 mg/dL
Serum uric acid (sUA); 50 mg single oral, fed, 24 h
  Percent change in serum uric acid, mean, time-matched (Day-1) baseline: −41.9%
  Serum uric acid, mean: 3.8 mg/dL
Serum uric acid (sUA); 50 mg single oral, fed, 30 h
  Percent change in serum uric acid, mean, time-matched (Day-1) baseline: −40.1%
  Serum uric acid, mean: 3.6 mg/dL
Serum uric acid (sUA); 50 mg single oral, fed, 36 h
  Percent change in serum uric acid, mean, time-matched (Day-1) baseline: −37.4%
  Serum uric acid, mean: 3.9 mg/dL
Serum uric acid (sUA); 50 mg single oral, fed, 48 h
  Percent change in serum uric acid, mean, time-matched (Day-1) baseline: −32.6%
  Serum uric acid, mean: 4.4 mg/dL
Serum uric acid (sUA); 50 mg single oral, fed, 54 h
  Percent change in serum uric acid, mean, time-matched (Day-1) baseline: −29.8%
  Serum uric acid, mean: 4.2 mg/dL
Serum uric acid (sUA); 50 mg single oral, fed, 60 h
  Percent change in serum uric acid, mean, time-matched (Day-1) baseline: −31.3%
  Serum uric acid, mean: 4.3 mg/dL
Serum uric acid (sUA); 50 mg single oral, fed, 72 h
  Percent change in serum uric acid, mean, time-matched (Day-1) baseline: −23.3%
  Serum uric acid, mean: 5.0 mg/dL
Serum uric acid (sUA); 50 mg single oral, fed, 96 h
  Percent change in serum uric acid, mean, time-matched (Day-1) baseline: −10.9%
  Serum uric acid, mean: 5.8 mg/dL
Serum uric acid (sUA); 50 mg single oral, fed, 120 h
  Percent change in serum uric acid, mean, time-matched (Day-1) baseline: −5.8%
  Serum uric acid, mean: 6.1 mg/dL
Serum uric acid (sUA); 50 mg single oral, throughout 120 hours post-dose
  sUA reduction with versus without food: no difference observed
Serum uric acid (sUA); [3]
  Percent change in serum uric acid, mean, time-matched (Day-1) baseline: −31.6%
  Serum uric acid, mean: 3.5 mg/dL
Serum uric acid (sUA); [4]
  Percent change in serum uric acid, mean, time-matched (Day-1) baseline: −48.2%
  Serum uric acid, mean: 2.6 mg/dL
Serum uric acid (sUA); [5]
  Percent change in serum uric acid, mean, time-matched (Day-1) baseline: −58.8%
  Serum uric acid, mean: 2.3 mg/dL
Serum uric acid (sUA); [6]
  Percent change in serum uric acid, mean, time-matched (Day-1) baseline: −58.2%
  Serum uric acid, mean: 2.2 mg/dL
Serum uric acid (sUA); [7]
  Percent change in serum uric acid, mean, time-matched (Day-1) baseline: −52.9%
  Serum uric acid, mean: 2.4 mg/dL
Serum uric acid (sUA); [8]
  Percent change in serum uric acid, mean, time-matched (Day-1) baseline: −47.4%
  Serum uric acid, mean: 2.9 mg/dL
Serum uric acid (sUA); [9]
  Percent change in serum uric acid, mean, time-matched (Day-1) baseline: −45.7%
  Serum uric acid, mean: 2.8 mg/dL
Serum uric acid (sUA); [10]
  Percent change in serum uric acid, mean, time-matched (Day-1) baseline: −37.5%
  Serum uric acid, mean: 3.1 mg/dL
Serum uric acid (sUA); [11]
  Percent change in serum uric acid, mean, time-matched (Day-1) baseline: −38.7%
  Serum uric acid, mean: 3.4 mg/dL
Serum uric acid (sUA); [12]
  Percent change in serum uric acid, mean, time-matched (Day-1) baseline: −17.3%
  Serum uric acid, mean: 4.6 mg/dL
Serum uric acid (sUA); [13]
  Percent change in serum uric acid, mean, time-matched (Day-1) baseline: −3.8%
  Serum uric acid, mean: 5.4 mg/dL
Serum uric acid (sUA); [14]
  Percent change in serum uric acid, mean, time-matched (Day-1) baseline: −36.2%
  Serum uric acid, mean: 3.7 mg/dL
Serum uric acid (sUA); [15]
  Percent change in serum uric acid, mean, time-matched (Day-1) baseline: −50.4%
  Serum uric acid, mean: 2.6 mg/dL
Serum uric acid (sUA); [16]
  Percent change in serum uric acid, mean, time-matched (Day-1) baseline: −59.3%
  Serum uric acid, mean: 2.5 mg/dL
Serum uric acid (sUA); [17]
  Percent change in serum uric acid, mean, time-matched (Day-1) baseline: −59.1%
  Serum uric acid, mean: 2.3 mg/dL
Serum uric acid (sUA); [18]
  Percent change in serum uric acid, mean, time-matched (Day-1) baseline: −55.6%
  Serum uric acid, mean: 2.4 mg/dL
Serum uric acid (sUA); [19]
  Percent change in serum uric acid, mean, time-matched (Day-1) baseline: −53.8%
  Serum uric acid, mean: 2.8 mg/dL
Serum uric acid (sUA); [20]
  Percent change in serum uric acid, mean, time-matched (Day-1) baseline: −49.5%
  Serum uric acid, mean: 2.9 mg/dL
Serum uric acid (sUA); [21]
  Percent change in serum uric acid, mean, time-matched (Day-1) baseline: −40.8%
  Serum uric acid, mean: 3.1 mg/dL
Serum uric acid (sUA); [22]
  Percent change in serum uric acid, mean, time-matched (Day-1) baseline: −37.1%
  Serum uric acid, mean: 3.8 mg/dL
Serum uric acid (sUA); [23]
  Percent change in serum uric acid, mean, time-matched (Day-1) baseline: −25.9%
  Serum uric acid, mean: 4.5 mg/dL
Serum uric acid (sUA); [24]
  Percent change in serum uric acid, mean, time-matched (Day-1) baseline: −15.4%
  Serum uric acid, mean: 5.2 mg/dL
Serum uric acid (sUA); [25]
  onset of sUA lowering effect: 6 hours post-dose
  time of sUA nadir: 24-36 hours post-dose
  time sUA remained lower than baseline levels: up to 72 hours post-dose
Serum uric acid (sUA); single oral dose, fasted
  dose at which decrease in sUA appeared to reach a plateau: ≤ 100 mg
[1]
  solubility in HBSS buffer: soluble
[2]
  UACR: 41 mg/g
  UACR % change from baseline: −57.4%
